Patent EP4729529A1, “PREPARATION OF PEPTIDE INHIBITOR OF INTERLEUKIN-23 RECEPTOR AND USE THEREOF” (Xizang Haisco Pharmaceutical Co., Ltd., priority 2023, dated 2024)
Positions of bridges follow the written chain, without caps; N, C: chain ends. Non-standard residues stand in square brackets, D forms with d. Residues, ends and D or L forms follow the SMILES beside them. Phe(4-OC2H4NH2,2,3-(CH2)3) = NCCOc1ccc(C[C@H](N)C(=O)O)c2c1CCC2; Trp(7-Me) = Cc1cccc2c(C[C@H](N)C(=O)O)c[nH]c12; 2Nal = N[C@@H](Cc1ccc2ccccc2c1)C(=O)O; 3Pal = N[C@@H](Cc1cccnc1)C(=O)O; Pen = CC(C)(S)[C@H](N)C(=O)O; Thp = NC1(C(=O)O)CCOCC1; Sar = CNCC(=O)O

Legend:
[1] = Pharmacokinetic test in mice (intravenous and intragastric, plasma LC-MS/MS); format: in vivo; details: male, mouse, Balb/c mice
Procedure: 4. Pharmacokinetic test in mice
4.1. Experimental animals: Male Balb/c mice (20-25 g, 18 mice/compound) were purchased from Chengdu Dossy Experimental Animals Co., Ltd.
4.2. Experimental design: On the day of the experiment, the Balb/c mice were randomly grouped by body weight. The animals were fasted with water available for 12-14 h one day before the administration, and were fed 4 h after the administration. Table 4. Administration information
Before and after administration, 0.06 mL of blood was taken from the orbit under isoflurane anaesthesia, and placed in an EDTAK2 centrifuge tube. The tube was centrifuged at 5000 rpm at 4°C for 10 min, and plasma was collected. The blood collection time points for the intravenous group and intragastric group were both 0 min, 5 min, 15 min, 30 min, 1 h, 2 h, 4 h, 6 h, 8 h, and 24 h. Before analysis and detection, all samples were stored at -80°C, and the samples were quantitatively analysed by LC-MS/MS. Table 5. Pharmacokinetic parameters of test compounds in mouse plasma

[2] = Test of stability in gastrointestinal fluid: simulated intestinal fluid (trypsin, pH 6.8); format: in vitro ADME; details: 0.5 mg/ml, 37°C
Procedure: 6. Test of stability in gastrointestinal fluid
1.3. Preparation of 0.1 mol/L NaOH: 0.4 g of NaOH was dissolved in 100 ml of water.
1.4. Preparation of simulated intestinal fluid: 0.68 g of potassium dihydrogen phosphate was dissolved in 50 ml of water, and the pH value was adjusted to 6.8 with 0.1 mol/L sodium hydroxide solution. 1 g of trypsin was dissolved in an appropriate amount of water. After the two solutions were mixed, the mixture was diluted with water to 1000 ml.
About 12.5 mg of the sample was added to a 25 ml volumetric flask and dissolved in the simulated gastric fluid (or simulated intestinal fluid), and the mixture was diluted to the mark.
Instrument model: Agilent 1260 Infinity; mobile phase A: 10 mmol/L K2HPO4, and mobile phase B: acetonitrile; column: Phenomenex Gemini^@ 3 um C18 110Å 150 * 4.6 mm; wavelength: 224 nm; column temperature: 30°C; sample tray temperature: 37°C; injection time: 35 min; injection volume: 10 ul; injection mode: gradient injection; and gradient method. Table 7. Gradient mobile phase
Sampling and testing: Firstly, the blank solution (simulated gastric fluid or simulated intestinal fluid) was tested. Then, the prepared sample (newly prepared for use) was placed in the injection tray for immediate injection. Then, a needle of sample was injected at 4.5 h, 9.5 h, and 18 h, respectively.
Table 8. Stability in gastrointestinal fluid

[3] = Test of stability in plasma, dog; format: in vitro ADME; details: read-out: Residual rate% at 37°C for 6 h
Procedure: (§1) 5. Test of stability in plasma
(§2) In this experiment, plasmas of five species, including human, monkey, dog, rat, and mouse, were used to evaluate the stability in plasma of Compound 7.
(§3) A plasma sample was prepared at a concentration level of 1000 ng/mL, and dispensed into EP tubes at time points 0 h and 6 h. Acetonitrile solution containing an internal standard was added directly to the 0 h sample; and the 6 h sample was placed at 37°C for the corresponding time, and then added with an acetonitrile solution containing internal standard. The concentration of the test compound in the sample was measured by the LC-MS/MS method, and the residual rate was calculated from the ratio of the peak areas of the test compound to the internal standard in the time point sample and the 0 h sample.
(§4) Experimental results: At the concentration level of 1000 ng/mL under the test conditions, the residual rates of the test Compounds were shown in Table 6 below. Table 6. Residual rate% at 37°C for 6 h

[4] = Test of stability in plasma, monkey; format: in vitro ADME; details: read-out: Residual rate% at 37°C for 6 h
Procedure: as §1, §2, §3, §4

[5] = target: (Homo sapiens, UniProt Q5VWK5); experiment: IL-23-stimulated pSTAT3 detection assay in PBMCs (ELISA); format: cell-based; details: rhIL23 stimulation 30 minutes, read-out: pSTAT3 inhibition/IC50
Procedure: 3. IL-23-stimulated pSTAT3 detection assay in PBMCs
Cryopreserved human PBMCs were thawed, and seeded onto a plate previously covered with an anti-CD3 antibody at 1 × 10^6 cells/well. Then, an anti-CD28 antibody was added to the plate, and the cells were incubated at 37°C with 5% CO2 for 5 days. On Day 5, the cells were seeded onto a 96-well plate at a density of 100K cells/well after 4 hours of stimulation by FBS starvation. The diluted Compound was transferred into the 96-well cell culture plate, and the plate was incubated at 37°C with 5% CO2 for 1 hour. rhIL23 (R&D, 1290-IL) was added to the cell culture plate, and the plate was incubated at 37°C with 5% CO2 for 30 minutes. The cells in the wells were lysed on ice with a lysis buffer containing 1× PHOSstop solution for 30 minutes, and the plate was centrifuged at 1000 rpm for 1 minute. Then, the supernatant was transferred into a 96-well ELISA plate, and pSTAT3 ELISA assay was performed according to the instructions of the kit (CST, 7300CA). Absorbance values at […] were read on PHERAstar FSX (BMG LRBTECH). The inhibition rate of the compounds was assessed using the following formula, and IC50 values were obtained by fitting with Graphpad.
Calculation formula of inhibition rate: [formula] • where Data negative: mean of DMSO control group; and • Data positive: mean of non-IL23-stimulated group
The calculation formula of IC50 was as follows: Y = Bottom + (Top−Bottom)/(1+10^(∧)((LogIC50−X)*HillSlope)) [formula] • where X: concentration of compound; and • Y: inhibition rate of compound. Table 3. pSTAT3 inhibition

(Homo sapiens, UniProt Q5VWK5), sequence (Q5VWK5 24-629, other chains not shown): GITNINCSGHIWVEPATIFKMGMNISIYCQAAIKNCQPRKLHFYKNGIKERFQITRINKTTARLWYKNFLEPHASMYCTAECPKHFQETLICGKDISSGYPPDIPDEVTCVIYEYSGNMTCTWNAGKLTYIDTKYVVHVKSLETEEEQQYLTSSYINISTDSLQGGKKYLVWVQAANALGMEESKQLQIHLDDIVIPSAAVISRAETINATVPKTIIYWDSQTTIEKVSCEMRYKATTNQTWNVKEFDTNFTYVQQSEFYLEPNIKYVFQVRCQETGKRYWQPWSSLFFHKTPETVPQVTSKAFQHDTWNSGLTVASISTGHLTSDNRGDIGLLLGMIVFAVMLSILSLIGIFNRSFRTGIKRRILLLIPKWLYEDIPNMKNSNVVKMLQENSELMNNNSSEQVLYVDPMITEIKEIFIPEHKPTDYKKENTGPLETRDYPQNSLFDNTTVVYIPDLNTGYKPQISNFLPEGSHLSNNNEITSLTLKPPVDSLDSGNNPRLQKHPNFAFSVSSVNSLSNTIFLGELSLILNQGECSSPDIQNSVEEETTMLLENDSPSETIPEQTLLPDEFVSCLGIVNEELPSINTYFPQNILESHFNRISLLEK
(Homo sapiens, UniProt Q5VWK5), sequence (Q9NPF7 20-189 partner, other chains not shown): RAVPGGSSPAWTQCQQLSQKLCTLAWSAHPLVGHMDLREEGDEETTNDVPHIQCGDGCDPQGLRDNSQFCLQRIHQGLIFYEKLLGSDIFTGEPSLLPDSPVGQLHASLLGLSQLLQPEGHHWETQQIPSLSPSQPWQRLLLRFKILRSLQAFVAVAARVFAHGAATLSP
(Homo sapiens, UniProt Q5VWK5), sequence (P29460 23-328 partner, other chains not shown): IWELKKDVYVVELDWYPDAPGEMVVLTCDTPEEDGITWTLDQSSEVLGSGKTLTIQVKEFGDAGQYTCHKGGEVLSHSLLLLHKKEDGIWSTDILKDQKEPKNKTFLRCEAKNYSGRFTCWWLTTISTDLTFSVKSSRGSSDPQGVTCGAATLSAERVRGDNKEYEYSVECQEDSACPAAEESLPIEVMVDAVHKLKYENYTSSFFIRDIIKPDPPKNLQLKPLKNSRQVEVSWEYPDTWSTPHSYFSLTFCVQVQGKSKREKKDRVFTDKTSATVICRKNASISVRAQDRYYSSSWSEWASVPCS

## CC(=O)NCCCC[C@@H]1NC(=O)[C@H](Cc2c[nH]c3c(C)cccc23)NC(=O)[C@H]([C@@H](C)O)NC(=O)[C@H](Cc2c[nH]cn2)NC(=O)[C@@H](NC(C)=O)C(C)(C)SSC(C)(C)[C@@H](C(=O)N[C@@H](Cc2ccc(OCCN)c3c2CCC3)C(=O)N[C@@H](Cc2ccc3ccccc3c2)C(=O)NC2(C(=O)N[C@@H](CCC(=O)O)C(=O)N[C@@H](CC(N)=O)C(=O)N[C@@H](Cc3cccnc3)C(=O)N(C)CC(N)=O)CCOCC2)NC1=O [Compound 7] (Ac-[Pen]HT[Trp(7-Me)]K(Ac)[Pen][Phe(4-OC2H4NH2,2,3-(CH2)3)][2Nal][Thp]EN[3Pal][Sar]-NH2; disulfide 1-6)
[1]; iv, i.v. (1 mg/kg)
  AUC(0-t): 4720 ± 512 ng·h/mL
  clearance: 3.52 ± 0.38 mL/min/kg
[1]; iv, i.v. (1 mg/kg), read-out: Vdss
  Vd: 0.261 ± 0.01 L/kg
[1]; po, i.g. (10 mg/kg)
  AUC(0-t): 227 ± 100 ng·h/mL
  bioavailability: 0.482 ± 0.21%
[2]; 0 h
  Peak area%: 94.095%
[2]; 4.5 h
  Peak area%: 93.552%
[2]; 9.5 h
  Peak area%: 93.575%
[2]; 18 h
  Peak area%: 94.831%
[3]
  remaining at 6 h, 1000 ng/mL: > 99%
[4]
  remaining at 6 h, 1000 ng/mL: > 99%
[5]
  IC50: 1.4 pM
